Measured values taken from patent US20100104980A1, “LITHOGRAPHIC PRINTING PLATE PRECURSOR” (Agfa Graphics NV, priority 2007, published 2010).

Assays:
[1] = Solubility in methylethylketone (MEK) measured at 20° C.; format: physicochemical
Protocol: The symmetric sensitizers SS-01 to SS-06 are given in Table 1 together with their solubility in methylethylketone (S (MEK)) measured at 20° C.

[2] = Solubility in 1-methoxy-2-propanol (MOP) at 80° C., Lasentec FBRM technology; format: physicochemical; conditions: solubility in 1-methoxy-2-propanol at 80° C.; from curve fitting of experimental data
Protocol: (§1) In the present application the MetaStable Zone of solutions of a sensitizer and/or a mixture of sensitizers were measured with Lasentec® FBRM® technology, from Mettler Toledo. In this experimental set up, a Lasentec® Probe is used in an automated Labmax® 2 litre reactor, both from Mettler Toledo. In a typical investigation, the solution is cooled at a controlled rate (° C./min.) At a certain temperature, the probe detects nucleation and holds the solution at that temperature as crystallization proceeds. After completion of the crystallization, the solution is subjected to a controlled heating (° C./min) until the probe detects the temperature at which dissolution of the crystals is nearly completed. Again, the solution is kept at that temperature until all crystals are dissolved. Such cooling and heating cycli are performed for different concentrations of the solution. All actions, i.e. performing the cooling and heating cycli, dilution of the solution, storage and analysis of the data are performed automatically by the experimental set up used.
(§2) All investigations were performed on a sensitizer solution in 1-methoxy-2-propanol, since this typical coating solvent has a high boiling point (120° C.) and, as described above, will probably determine the crystallization behaviour at the end of the drying step of the photopolymerizable coating.
(§3) The obtained data for each investigated solution of a sensitizer or a mixture of sensitizers may be represented as in FIG. 1. In FIG. 1, curve S is the solubility curve and curve N the nucleation curve. These curves border three regions characterizing the solution as a function of concentration and temperature: the UnSaturated Zone (USZ), a stable zone wherein the solution is unsaturated (sensitizer is completely dissolved); an Unstable Zone (UZ), wherein crystallization occurs; and a MetaStable Zone (MSZ) wherein the solution is supersaturated but wherein no crystallization occurs.
(§4) The suspension was stirred at 350 rpm and heated until complete dissolution of all sensitizers. All following actions were automatically performed by the experimental set up used. The experimental set up constituted a Labmax® 2 liter automated lab reactor equipped with Lasentec® Probe and the Lasentec® D600 hardware, all distributed by Mettler Toledo. The Lasentec® FBRM® technology enables the detection of nucleation and dissolution temperatures of a solution. FBRM® stands for Focused Beam Reflectance Measurement. The Lasentec® probe measures the number and the average diameter of the particles in the suspension (the laser of the Lasentec® probe continuously scans, with a linear scan speed of 2 m/s, a region of the suspension; the laser light is reflected by the particles residing in the scanned region).
The 40 percent by weight solution was cooled at 0.2° C./minute. Upon detection of nucleation, i.e. when the Lasentec® FBRM® technology detects more than 800 particles with an average diameter of 1 to 20 μm, the so called ‘fines’ region, the mixture was kept at the attained temperature during 0.5 hour as crystallization proceeds. Upon completion of the crystallization, the mixture was heated at 0.2° C./minute. Upon detection of solubilization, i.e. when the Lasentec® FBRM® technology detects less than 30 particles with an average particle diameter of 20 to 50 μm, the so called ‘coarses’ region, the temperature was kept at the attained temperature during 0.5 hour until completion of the solubilization. […]

[3] = MetaStable Zone Width (MSZW) in 1-methoxy-2-propanol at 80° C., Lasentec FBRM technology; format: physicochemical; conditions: cooling and heating rate 0.2° C./min, from curve fitting
Protocol: as §1, §2, §3
The MetaStable Zone Width (MSZW), expressed in ° C., at a given temperature, is the width of the Metastable Zone (MSZ) starting at the curve S at that given temperature. Since the MSZW is dependent on the cooling and heating rates, these rates were identical for all solutions investigated, i.e. 0.2° C./min. If the cooling rate would be indefinitely slow, the nucleation curve would practically coincide with the solubility curve and no MetaStable Zone would be detected.
as §4
The 40 percent by weight solution was cooled at 0.2° C./minute. […]

| SMILES | melting point | S (MEK) [1] | S (MOP) 80° C. [2] | MSZW 80° C. [3] |
| --- | --- | --- | --- | --- |
| CCCCC(CC)COc1c(OC)cc(/C=C/c2ccc(/C=C/c3cc(OC)c(OC(C)CC)c(OC)c3)cc2)cc1OC (stereo not drawn) [AS-01] | 81 °C | – | – | – |
| CCC(C)Oc1c(OC)cc(/C=C/c2ccc(/C=C/c3cc(OC)c(OC(CC)CC)c(OC)c3)cc2)cc1OC (stereo not drawn) [AS-02] | 155 °C | – | – | – |
| CCC(C)Oc1c(OC)cc(/C=C/c2ccc(/C=C/c3cc(OC)c(OC4CCCCC4)c(OC)c3)cc2)cc1OC (stereo not drawn) [AS-03] | 165 °C | – | – | – |
| CCC(C)Oc1c(OC)cc(/C=C/c2ccc(/C=C/c3cc(OC)c(OC4CCCC4)c(OC)c3)cc2)cc1OC (stereo not drawn) [AS-04] | 153 °C | – | – | – |
| CCC(C)Oc1c(OC)cc(/C=C/c2ccc(/C=C/c3cc(OC)c(OCCO)c(OC)c3)cc2)cc1OC (stereo not drawn) [AS-05] | 137 °C | – | – | – |

More lines, now with the values ahead:

| melting point | S (MEK) [1] | S (MOP) 80° C. [2] | MSZW 80° C. [3] | SMILES |
| --- | --- | --- | --- | --- |
| – | 0.89 wt % | 4.66 wt. % | 4.5 °C | COc1cc(/C=C/c2ccc(/C=C/c3cc(OC)c(OC)c(OC)c3)cc2)cc(OC)c1OC [SS-01] |
| – | 4.75 wt % | 10.78 wt. % | 4.5 °C | CCCOc1c(OC)cc(/C=C/c2ccc(/C=C/c3cc(OC)c(OCCC)c(OC)c3)cc2)cc1OC [SS-02] |
| – | 0.45 wt % | 7.31 wt. % | 1.7 °C | COc1cc(/C=C/c2ccc(/C=C/c3cc(OC)c(OC(C)C)c(OC)c3)cc2)cc(OC)c1OC(C)C [SS-03] |
| – | 8.71 wt % | 22.76 wt. % | 1.6 °C | CCC(C)Oc1c(OC)cc(/C=C/c2ccc(/C=C/c3cc(OC)c(OC(C)CC)c(OC)c3)cc2)cc1OC (stereo not drawn) [SS-04] |
| – | 9.64 wt % | 6.14 wt. % | 3.6 °C | CCC(CC)Oc1c(OC)cc(/C=C/c2ccc(/C=C/c3cc(OC)c(OC(CC)CC)c(OC)c3)cc2)cc1OC [SS-05] |
| – | 23.21 wt % | – | – | CCCCC(CC)COc1c(OC)cc(/C=C/c2ccc(/C=C/c3cc(OC)c(OCC(CC)CCCC)c(OC)c3)cc2)cc1OC (stereo not drawn) [SS-06] |
